Converted amounts (≈) assume the structure as drawn.
Legend:
Format in all cases: cell-based
[1] = system: Staphylococcus aureus FDA 209PJc-1; assay: Antibacterial activity, agar-dilution MIC, organism No. 1; details: Staphylococcus aureus, FDA209PJC1; Organism No. 1, bouillon-agar; read-out: Minimum Inhibitory Concentration
Procedure, shortened: (§1)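 For each organism the specimen was serially diluted into bouillon agar, and inhibition was scored to give the MIC in μg/ml of culture medium.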

[2] = system: Staphylococcus aureus Terajima; assay: Antibacterial activity, agar-dilution MIC, organism No. 2; details: Staphylococcus aureus; Organism No. 2, bouillon-agar; read-out: Minimum Inhibitory Concentration
Procedure, shortened: as §1

[3] = system: Staphylococcus aureus MS 353; assay: Antibacterial activity, agar-dilution MIC, organism No. 3; details: Staphylococcus aureus, MS353; Organism No. 3, bouillon-agar; read-out: Minimum Inhibitory Concentration
Procedure, shortened: as §1

[4] = system: Streptococcus pyogenes Cook; assay: Antibacterial activity, agar-dilution MIC, organism No. 4; details: Streptococcus pyogenes; Organism No. 4, bouillon-agar; read-out: Minimum Inhibitory Concentration
Procedure, shortened: as §1

[5] = system: Escherichia coli NIHJ-JC-2; assay: Antibacterial activity, agar-dilution MIC, organism No. 5; details: Escherichia coli, NIHJJC2; Organism No. 5, bouillon-agar; read-out: Minimum Inhibitory Concentration
Procedure, shortened: as §1

[6] = system: Escherichia coli K12 C600 IAM 1264; assay: Antibacterial activity, agar-dilution MIC, organism No. 6; details: Escherichia coli, IAM1264; Organism No. 6, bouillon-agar; read-out: Minimum Inhibitory Concentration
Procedure, shortened: as §1

[7] = system: Klebsiella pneumoniae PCI-602; assay: Antibacterial activity, agar-dilution MIC, organism No. 7; details: Klebsiella pneumoniae, PCI602; Organism No. 7, bouillon-agar; read-out: Minimum Inhibitory Concentration
Procedure, shortened: as §1

[8] = system: Salmonella typhimurium IID 971; assay: Antibacterial activity, agar-dilution MIC, organism No. 8; details: Salmonella enterica; Organism No. 8, bouillon-agar; read-out: Minimum Inhibitory Concentration
Procedure, shortened: as §1

Salmonella typhi 901 = assay: Antibacterial activity, agar-dilution MIC, organism No. 9; details: Salmonella enterica, TYPHI, read-out: Minimum Inhibitory Concentration
Procedure, shortened: as §1

[9] = system: Salmonella paratyphi-A 1015; assay: Antibacterial activity, agar-dilution MIC, organism No. 10; details: Salmonella enterica, PARATYPHI, read-out: Minimum Inhibitory Concentration
Procedure, shortened: as §1

[10] = system: Salmonella shottmuelleri 8006; assay: Antibacterial activity, agar-dilution MIC, organism No. 11; details: Salmonella, 8006; Organism No. 11, bouillon-agar; read-out: Minimum Inhibitory Concentration
Procedure, shortened: as §1

[11] = system: Salmonella enteritidis G 14; assay: Antibacterial activity, agar-dilution MIC, organism No. 12; details: Salmonella enterica, ENTERITIDIS; Organism No. 12, bouillon-agar; read-out: Minimum Inhibitory Concentration
Procedure, shortened: as §1

[12] = system: Serratia marcescens IAM 1184; assay: Antibacterial activity, agar-dilution MIC, organism No. 13; details: Serratia marcescens, IAM1184; Organism No. 13, bouillon-agar; read-out: Minimum Inhibitory Concentration
Procedure, shortened: as §1

[13] = system: Bacillus subtilis ATCC 6633; assay: Antibacterial activity, agar-dilution MIC, organism No. 14; details: Bacillus subtilis, ATCC6633; Organism No. 14, bouillon-agar; read-out: Minimum Inhibitory Concentration
Procedure, shortened: as §1

[14] = system: Pseudomonas aeruginosa IFO 3445; assay: Antibacterial activity, agar-dilution MIC, organism No. 15; details: Pseudomonas aeruginosa, IFO3445; Organism No. 15, bouillon-agar; read-out: Minimum Inhibitory Concentration
Procedure, shortened: as §1

[15] = system: Pseudomonas aeruginosa NCTC 10490; assay: Antibacterial activity, agar-dilution MIC, organism No. 16; details: Pseudomonas aeruginosa, NCTC10490; Organism No. 16, bouillon-agar; read-out: Minimum Inhibitory Concentration
Procedure, shortened: as §1

[16] = system: Pseudomonas aeruginosa PAO 1; assay: Antibacterial activity, agar-dilution MIC, organism No. 17; details: Pseudomonas aeruginosa, PAO1; Organism No. 17, bouillon-agar; read-out: Minimum Inhibitory Concentration
Procedure, shortened: as §1

[17] = system: Proteus morganii IFO 3848; assay: Antibacterial activity, agar-dilution MIC, organism No. 18; details: Morganella morganii, IFO3848; Organism No. 18, bouillon-agar; read-out: Minimum Inhibitory Concentration
Procedure, shortened: as §1

[18] = system: Proteus mirabilis IFO 3849; assay: Antibacterial activity, agar-dilution MIC, organism No. 19; details: Proteus mirabilis, IFO3849; Organism No. 19, bouillon-agar; read-out: Minimum Inhibitory Concentration
Procedure, shortened: as §1

Proteus vulgaris OX-19 = assay: Antibacterial activity, agar-dilution MIC, organism No. 20; details: Proteus vulgaris, OX19; Organism No. 20, bouillon-agar; read-out: Minimum Inhibitory Concentration
Procedure, shortened: as §1

Proteus vulgaris HX-19 = assay: Antibacterial activity, agar-dilution MIC, organism No. 21; details: Proteus vulgaris, HX19; Organism No. 21, bouillon-agar; read-out: Minimum Inhibitory Concentration
Procedure, shortened: as §1

[19] = system: Proteus rettgeri IFO 3850; assay: Antibacterial activity, agar-dilution MIC, organism No. 22; details: Providencia rettgeri, IFO3850; Organism No. 22, bouillon-agar; read-out: Minimum Inhibitory Concentration
Procedure, shortened: as §1

[20] = system: Enterobacter aerogenes ATCC 13048; assay: Antibacterial activity, agar-dilution MIC, organism No. 23; details: Klebsiella aerogenes, ATCC13048; Organism No. 23, bouillon-agar; read-out: Minimum Inhibitory Concentration
Procedure, shortened: as §1

Enterobacter cloacae 963 = assay: Antibacterial activity, agar-dilution MIC, organism No. 24; details: Enterobacter cloacae, 963; Organism No. 24, bouillon-agar; read-out: Minimum Inhibitory Concentration
Procedure, shortened: as §1

[21] = system: Micrococcus luteus ATCC 9341; assay: Antibacterial activity, agar-dilution MIC, organism No. 25; details: Micrococcus luteus, ATCC9341; Organism No. 25, bouillon-agar; read-out: Minimum Inhibitory Concentration
Procedure, shortened: as §1

[22] = system: Streptococcus pyogenes IFO 3340; assay: Antibacterial activity, agar-dilution MIC, organism No. 26; details: Streptococcus pyogenes, IFO3340; Organism No. 26, bouillon-agar; read-out: Minimum Inhibitory Concentration
Procedure, shortened: as §1

[23] = system: Streptococcus faecium IFO 3826; assay: Antibacterial activity, agar-dilution MIC, organism No. 27; details: Enterococcus faecium, IFO3826; Organism No. 27, bouillon-agar; read-out: Minimum Inhibitory Concentration
Procedure, shortened: as §1

[24] = system: Mycoplasma pneumoniae IID817; assay: Antimycoplasmal activity, MIC by phenol red colour change, organism No. 28; details: Mycoplasma, IID817; Organism No. 28, PPLO broth + 1% glucose, 37° C.; read-out: Minimum Inhibitory Concentration (MIC)
Protocol: Mycoplasma pneumoniae IID817 was used as the test microorganism in a culture medium prepared by adding 1% of glucose to "PPLO broth (manufactured by Difco Co.) liquid culture medium" at 37° C. with phenol red as an indicator, thereby culturing the test microorganism.

[25] = system: Candida albicans IAM 4905; assay: Antifungal activity, agar-dilution MIC, organism No. 29; details: Candida albicans, IAM4905; Organism No. 29, bouillon-agar; read-out: Minimum Inhibitory Concentration
Procedure, shortened: as §1

[26] = system: Aspergillus niger IFO 6342; assay: Antifungal activity, agar-dilution MIC, organism No. 30; details: Aspergillus niger, IFO6342; Organism No. 30, bouillon-agar; read-out: Minimum Inhibitory Concentration
Procedure, shortened: as §1

| Structure (SMILES) | MIC [1] [µg/mL] | MIC [2] [µg/mL] | MIC [3] [µg/mL] | MIC [4] [µg/mL] | MIC [5] [µg/mL] | MIC [6] [µg/mL] | MIC [7] [µg/mL] | MIC [8] [µg/mL] | MIC (Salmonella typhi 901) [µg/mL] | MIC [9] [µg/mL] | MIC [10] [µg/mL] | MIC [11] [µg/mL] | MIC [12] [µg/mL] | MIC [13] [µg/mL] | MIC [14] [µg/mL] | MIC [15] [µg/mL] | MIC [16] [µg/mL] | MIC [17] [µg/mL] | MIC [18] [µg/mL] | MIC (Proteus vulgaris OX-19) [µg/mL] | further results |
| --- | --- | --- | --- | --- | --- | --- | --- | --- | --- | --- | --- | --- | --- | --- | --- | --- | --- | --- | --- | --- | --- |
| [C-]#[N+]C12CC3(/C=C/C(=O)N4CCOCC4)OC3C1O2 (stereo not drawn) [compound 22] | 50 (≈ 191 µM) | 100 (≈ 381 µM) | 50 (≈ 191 µM) | 50 (≈ 191 µM) | 50 (≈ 191 µM) | 50 (≈ 191 µM) | 50 (≈ 191 µM) | 25 (≈ 95.3 µM) | 6.25 (≈ 23.8 µM) | 25 (≈ 95.3 µM) | 25 (≈ 95.3 µM) | 12.5 (≈ 47.7 µM) | > 200 | 200 (≈ 763 µM) | > 200 | > 200 | > 200 | 6.25 (≈ 23.8 µM) | > 200 | 12.5 (≈ 47.7 µM) | MIC (Proteus vulgaris HX-19): 1.56 µg/mL (≈ 5.95 µM); MIC [19]: > 200 µg/mL; MIC [20]: > 200 µg/mL; MIC (Enterobacter cloacae 963): > 200 µg/mL; MIC [21]: 0.39 µg/mL (≈ 1.49 µM); MIC [22]: 200 µg/mL (≈ 763 µM); MIC [23]: > 200 µg/mL; MIC [24]: 1.56 µg/mL; MIC [25]: 6.25 µg/mL (≈ 23.8 µM); MIC [26]: 3.13 µg/mL (≈ 11.9 µM) |
| [C-]#[N+]C12CC3(/C=C/C(=O)Nc4ccc5c(c4)CCC5)OC3C1O2 (stereo not drawn) [compound 75] | 0.39 (≈ 1.26 µM) | 1.56 (≈ 5.06 µM) | 0.78 (≈ 2.53 µM) | > 200 | > 200 | > 200 | 0.78 (≈ 2.53 µM) | > 200 | > 200 | 0.78 (≈ 2.53 µM) | 1.56 (≈ 5.06 µM) | > 200 | > 200 | 1.56 (≈ 5.06 µM) | > 200 | > 200 | > 200 | 3.13 (≈ 10.2 µM) | > 200 | 1.56 (≈ 5.06 µM) | MIC (Proteus vulgaris HX-19): 0.78 µg/mL (≈ 2.53 µM); MIC [19]: > 200 µg/mL; MIC [20]: > 200 µg/mL; MIC (Enterobacter cloacae 963): 200 µg/mL (≈ 649 µM); MIC [21]: 200 µg/mL (≈ 649 µM); MIC [22]: 0.78 µg/mL (≈ 2.53 µM); MIC [23]: 1.56 µg/mL (≈ 5.06 µM); MIC [24]: < 0.2 µg/mL; MIC [25]: 200 µg/mL (≈ 649 µM); MIC [26]: 200 µg/mL (≈ 649 µM) |
| [C-]#[N+]C12CC3(/C=C/C(=O)N4CCCC4)OC3C1O2 (stereo not drawn) [compound 21] | 50 (≈ 203 µM) | 100 (≈ 406 µM) | 50 (≈ 203 µM) | 100 (≈ 406 µM) | > 200 | > 200 | 50 (≈ 203 µM) | 100 (≈ 406 µM) | 50 (≈ 203 µM) | 100 (≈ 406 µM) | 50 (≈ 203 µM) | 50 (≈ 203 µM) | > 200 | 200 (≈ 812 µM) | > 200 | > 200 | > 200 | 50 (≈ 203 µM) | > 200 | 25 (≈ 102 µM) | MIC (Proteus vulgaris HX-19): 1.56 µg/mL (≈ 6.33 µM); MIC [19]: > 200 µg/mL; MIC [20]: > 200 µg/mL; MIC (Enterobacter cloacae 963): > 200 µg/mL; MIC [21]: 0.39 µg/mL (≈ 1.58 µM); MIC [22]: > 200 µg/mL; MIC [23]: > 200 µg/mL; MIC [24]: 1.56 µg/mL; MIC [25]: 6.25 µg/mL (≈ 25.4 µM); MIC [26]: 3.13 µg/mL (≈ 12.7 µM) |

Reference: patent US4684664A, “Derivatives of β-(4-isocyano-1,2,3,4-diepoxycyclopentyl) acrylic acid” (Kureha Kagaku Kogyo Kabushiki Kaisha, priority 1984, dated 1987)
